Data as given in patent publication US11945973B2, “Ionic liquid-based coating and method of making articles coated with the same” (THE HONG KONG UNIVERSITY OF SCIENCE AND TECHNOLOGY, priority 2019, dated 2024).

Key:
[1] = tested on: E. coli; experiment: Inhibition zone on agar plates; format: cell-based; settings: liquid applied to agar plate
Method: A bacterial suspension (0.1 ml) was spread onto tryptone soya agar plates. HEPA filters with ionic liquid coatings were cut into small pieces. They were then placed on the center of plates spread by bacteria. The plates were incubated at room temperature for 48 hours.

[2] = tested on: A549 lung epithelial cells
Method: A549 lung epithelial cells were grown in 25 cm^2 flasks with Dulbecco's modified Eagle's medium (DMEM) supplemented with 10% fetal bovine serum, 100 U/ml streptomycin, and 50 U/ml penicillin at 37° C. in a humidified atmosphere with 5% CO2. A subculture of confluent monolayers was carried out using 0.05% trypsin, 0.53 mmol/l ethylenediaminetetraacetic acid in calcium and magnesium-free Hanks balanced salt solution (HBSS). […] For the 3-(4,5-dimethylthiazol-2-yl)-2,5-diphenyltetrazolium bromide (MTT) assay, cells were plated in 96-well microplates at 2×10^5 cell/well for 6 hours, then the media were gently changed to remove non-adherent cells. The plates were used for assays after 24 hours. […] The media were replaced with 100 μl of dimethyl sulfoxide for 20 minutes, and the absorbances at 595 nm were determined using a microplate reader. […] The inhibition rate, I, is given by [formula] where C is the absorbance of the control group containing the cell solution and MTT, which indicates the number of maximum living cells, S is the absorbance of the sample group containing the cell solution, ionic liquids and MTT, which indicates the number of living cells in the ionic liquids, and B is the absorbance of the blank group containing only pure culture media and MTT, which is set reduce interference by the natural environment.

SMILES	inhibition zone for E. coli [1]	cytotoxicity (inhibition rate) for A549 lung epithelial cells [2]
CCn1cc[n+](C)c1.F[B-](F)(F)F [EMIM-BF4, 1-ethyl-3-methylimidazolium tetrafluoroborate]	obvious inhibition	lowest cytotoxicity
CCO [ethanol, reference compound]	no clear inhibition zones	–
